Data taken from patent US12264158B2, “Protein kinase MKK4 inhibitors for promoting liver regeneration or reducing or preventing hepatocyte death” (HEPAREGENIX GMBH, priority 2018, dated 2025).

Experiments:
MKK4 = target: T1, MKK4 (Homo sapiens, UniProt P45985); experiment: KINOMEscan competition binding assay, MKK4 potency; conditions: concentration of 100 nM
T1 construct: S84/D399; host or cells: HEK-293
T1 sequence (P45985 84-399): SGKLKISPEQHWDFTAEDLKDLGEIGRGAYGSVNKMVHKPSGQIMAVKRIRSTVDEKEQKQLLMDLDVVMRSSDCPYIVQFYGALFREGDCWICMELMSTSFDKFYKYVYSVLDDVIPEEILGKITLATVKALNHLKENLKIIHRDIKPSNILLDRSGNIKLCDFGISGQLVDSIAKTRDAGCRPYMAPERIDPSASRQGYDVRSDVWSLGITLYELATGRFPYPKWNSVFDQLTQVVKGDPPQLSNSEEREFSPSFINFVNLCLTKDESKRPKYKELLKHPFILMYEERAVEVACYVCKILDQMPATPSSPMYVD
Summary of the method: (§1)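 DNA-tagged kinases expressed in HEK-293 cells compete between test compound and immobilized ligand on blocked beads. Bound kinase is eluted and quantified by qPCR of the DNA tag. Compounds were tested at the indicated final concentrations, prepared from 10 mM stocks.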

JNK1 = target: T2, JNK1 (Homo sapiens, UniProt P45983); experiment: KINOMEscan competition binding assay, selectivity against off-target JNK1; conditions: concentration of 100 nM
T2 construct: M1/Q384; host or cells: HEK-293
T2 sequence (P45983 1-384 isoform P45983-2): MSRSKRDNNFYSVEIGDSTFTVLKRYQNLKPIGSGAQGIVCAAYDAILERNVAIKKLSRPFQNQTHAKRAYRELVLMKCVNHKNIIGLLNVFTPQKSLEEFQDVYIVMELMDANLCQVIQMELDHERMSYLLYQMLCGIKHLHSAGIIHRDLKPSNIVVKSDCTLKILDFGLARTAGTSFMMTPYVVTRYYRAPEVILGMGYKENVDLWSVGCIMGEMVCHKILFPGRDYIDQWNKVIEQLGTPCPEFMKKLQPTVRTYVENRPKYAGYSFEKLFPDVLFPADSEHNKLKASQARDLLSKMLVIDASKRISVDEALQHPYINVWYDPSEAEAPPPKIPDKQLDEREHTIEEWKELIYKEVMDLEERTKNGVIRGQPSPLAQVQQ
Summary of the method: as §1

MKK7 = target: T3, MKK7 (Homo sapiens, UniProt O14733); experiment: KINOMEscan competition binding assay, selectivity against off-target MKK7; conditions: concentration of 100 nM
T3 construct: M1/R419; host or cells: HEK-293
T3 sequence (O14733 1-419): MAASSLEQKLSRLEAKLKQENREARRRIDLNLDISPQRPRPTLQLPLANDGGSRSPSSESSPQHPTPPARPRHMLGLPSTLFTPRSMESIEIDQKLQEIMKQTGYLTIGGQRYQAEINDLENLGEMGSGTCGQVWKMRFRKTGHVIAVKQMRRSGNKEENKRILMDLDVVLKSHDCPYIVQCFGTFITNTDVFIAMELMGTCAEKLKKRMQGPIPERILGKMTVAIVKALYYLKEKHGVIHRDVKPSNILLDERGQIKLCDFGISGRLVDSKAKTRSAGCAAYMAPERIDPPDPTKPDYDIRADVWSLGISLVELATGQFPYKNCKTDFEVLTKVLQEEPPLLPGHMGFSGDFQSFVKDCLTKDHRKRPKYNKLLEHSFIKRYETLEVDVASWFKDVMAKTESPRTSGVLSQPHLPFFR
Summary of the method: as §1

BRaf = BRaf (Homo sapiens, UniProt P15056); experiment: KINOMEscan competition binding assay, selectivity against off-target BRaf; conditions: concentration of 100 nM
Sequence of BRaf (P15056 whole entry): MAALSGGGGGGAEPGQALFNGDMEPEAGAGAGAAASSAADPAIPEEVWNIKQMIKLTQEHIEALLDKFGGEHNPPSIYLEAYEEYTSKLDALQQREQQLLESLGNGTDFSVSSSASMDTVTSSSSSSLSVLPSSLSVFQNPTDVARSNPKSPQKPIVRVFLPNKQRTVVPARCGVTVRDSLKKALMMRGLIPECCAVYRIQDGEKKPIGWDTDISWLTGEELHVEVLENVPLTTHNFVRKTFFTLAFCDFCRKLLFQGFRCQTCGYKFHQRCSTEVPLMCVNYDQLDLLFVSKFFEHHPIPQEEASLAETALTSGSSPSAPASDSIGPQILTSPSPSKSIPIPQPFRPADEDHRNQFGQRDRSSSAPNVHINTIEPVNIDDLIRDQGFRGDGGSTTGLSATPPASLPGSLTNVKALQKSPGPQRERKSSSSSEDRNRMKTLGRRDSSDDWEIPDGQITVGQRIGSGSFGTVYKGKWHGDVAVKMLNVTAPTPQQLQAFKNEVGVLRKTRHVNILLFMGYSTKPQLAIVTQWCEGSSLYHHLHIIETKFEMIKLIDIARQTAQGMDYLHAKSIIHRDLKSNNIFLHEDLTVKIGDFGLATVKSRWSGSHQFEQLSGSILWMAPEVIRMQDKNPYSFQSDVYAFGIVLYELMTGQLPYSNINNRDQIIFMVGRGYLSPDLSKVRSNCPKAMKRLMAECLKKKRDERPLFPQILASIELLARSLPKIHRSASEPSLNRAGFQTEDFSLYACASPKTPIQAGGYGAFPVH
Summary of the method: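 Competition binding: test compound competes with an immobilized ligand for DNA-tagged BRaf, and kinase captured on the ligand is quantified by qPCR of the DNA tag. Compounds from 10 mM stocks were tested at the indicated final concentrations.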

MKK4-MEKK2 mix = target: T4, MKK4-MEKK2 mix (Homo sapiens, UniProt P45985); experiment: Radiometric protein kinase assay, MEKK2 dependent MKK4 activation (cascade); assay type: biochemical; conditions: substrate JNK1 KRKR, ATP 0.2 μM, read-out: Cascade, potency derived from IC50-values
T4 construct: MEKK2, recombinant, active: ProQinase product #0583-0000-1
T4 sequence (P45985 2-399): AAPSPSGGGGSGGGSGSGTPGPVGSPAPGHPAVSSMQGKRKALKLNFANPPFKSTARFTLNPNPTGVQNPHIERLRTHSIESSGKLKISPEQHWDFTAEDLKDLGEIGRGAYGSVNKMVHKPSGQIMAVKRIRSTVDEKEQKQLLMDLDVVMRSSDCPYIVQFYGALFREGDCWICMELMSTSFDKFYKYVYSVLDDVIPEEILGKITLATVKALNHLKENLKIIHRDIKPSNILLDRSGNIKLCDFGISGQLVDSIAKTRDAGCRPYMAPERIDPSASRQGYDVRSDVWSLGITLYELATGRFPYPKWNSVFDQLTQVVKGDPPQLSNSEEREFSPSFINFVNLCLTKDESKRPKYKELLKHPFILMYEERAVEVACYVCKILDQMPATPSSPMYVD
Method: The activation step is done in 50 mM HEPES pH 7.5, 50 mM NaCl, 3.8 mM MgCl2, 2.5 mM DTT, 10% (v/v) glycerol. Final DMSO concentration is 1%. The activation mixture is pipetted in the following order • 2.5 μl compound in 4% DMSO • 2.5 μl ATP/MgCl2 mix • 5 μl premixed kinase solution MKK4:MEKK2 10:1 (w/w)
Protein concentrations in the activation mix are 1 μM MKK4 and 50 nM MEKK2.
(§2) A radiometric protein kinase assay was used for measuring the kinase activity of the respective protein kinases. All kinase assays were performed in 96-well polypropylene plates. After the reactions were stopped, the assay mixtures were transferred to 96-well MSFC filter-plates (Millipore). The reaction mix was passed through the filter membrane by aspiration, the membrane was washed 3 times with 150 mM H3PO4, once with ethanol, dried and liquid scintillation cocktail was added. Radioactivity was determined by counting of the samples in a Microbeta multiwell scintillation counter (Wallac).

MKK4 active = target: T5, MKK4 active (Homo sapiens, UniProt P45985); experiment: Radiometric protein kinase assay, MKK4 active; assay type: biochemical; conditions: substrate JNK1 KRKR, ATP 0.2 μM, read-out: MKK4, potency derived from IC50-values
T5 construct: purchased ProQinase #0948-0000-1
T5 sequence (P45985 1-399): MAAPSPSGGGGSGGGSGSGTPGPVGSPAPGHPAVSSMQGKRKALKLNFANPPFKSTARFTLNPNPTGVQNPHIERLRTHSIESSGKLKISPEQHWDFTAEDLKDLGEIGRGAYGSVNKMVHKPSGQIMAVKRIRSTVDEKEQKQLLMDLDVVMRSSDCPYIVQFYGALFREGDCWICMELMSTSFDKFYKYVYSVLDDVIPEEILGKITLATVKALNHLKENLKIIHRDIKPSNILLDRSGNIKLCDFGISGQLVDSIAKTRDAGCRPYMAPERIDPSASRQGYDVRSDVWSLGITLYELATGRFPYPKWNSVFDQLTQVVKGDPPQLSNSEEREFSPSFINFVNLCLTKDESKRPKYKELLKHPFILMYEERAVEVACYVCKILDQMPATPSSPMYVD
Method: as §2

MEKK2 = target: T6, MEKK2 (Homo sapiens, UniProt Q9Y2U5); experiment: Radiometric protein kinase assay, MEKK2; assay type: biochemical; conditions: substrate Casein, ATP 0.2 μM; read-out: MEKK2, potency derived from IC50-values
T6 construct: purchased ProQinase #0583-0000-1
T6 sequence (Q9Y2U5 1-619): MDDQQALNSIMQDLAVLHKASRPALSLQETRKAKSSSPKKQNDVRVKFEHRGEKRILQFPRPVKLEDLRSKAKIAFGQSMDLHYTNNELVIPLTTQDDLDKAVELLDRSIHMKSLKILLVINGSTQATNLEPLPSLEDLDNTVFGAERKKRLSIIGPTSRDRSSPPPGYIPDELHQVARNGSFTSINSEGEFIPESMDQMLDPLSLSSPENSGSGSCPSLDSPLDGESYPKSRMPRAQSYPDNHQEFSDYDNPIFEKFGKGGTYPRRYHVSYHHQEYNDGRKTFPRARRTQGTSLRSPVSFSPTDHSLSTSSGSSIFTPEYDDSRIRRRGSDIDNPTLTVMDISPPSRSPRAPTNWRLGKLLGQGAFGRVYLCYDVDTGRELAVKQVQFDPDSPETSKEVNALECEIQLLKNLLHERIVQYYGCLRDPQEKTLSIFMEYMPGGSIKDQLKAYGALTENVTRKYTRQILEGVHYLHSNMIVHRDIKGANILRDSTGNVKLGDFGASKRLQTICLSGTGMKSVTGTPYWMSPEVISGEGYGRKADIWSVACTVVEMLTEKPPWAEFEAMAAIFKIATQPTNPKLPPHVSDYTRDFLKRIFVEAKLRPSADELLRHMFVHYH
Summary of the method: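 Kinase activity measured radiometrically: stopped reactions were captured on filter plates, washed with 150 mM H3PO4 and ethanol, and incorporated radioactivity counted by liquid scintillation.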

MKK4, residual percent of control binding (PoC) (MKK4) | Selectivity vs. JNK1, ratio PoC(JNK1)/PoC(MKK4) (JNK1) | Selectivity vs. MKK7, ratio PoC(MKK7)/PoC(MKK4) (MKK7) | Selectivity vs. BRaf, ratio PoC(BRaf)/PoC(MKK4) (BRaf) | IC50 (MKK4-MEKK2 mix) [µM] | IC50 (MKK4 active) [µM] | IC50 (MEKK2) [µM] | Structure (SMILES)
+++ (PoC < 1) | +++ (PoC(JNK1)/PoC(MKK4) ≥ 30) | +++ (PoC(MKK7)/PoC(MKK4) ≥ 30) | ++ (30 > PoC(BRaf)/PoC(MKK4) ≥ 10) | 1 to 10 | < 0.5 | 1 to 10 | CCCS(=O)(=O)Nc1ccc(F)c(C(=O)c2n[nH]c3ncc(-c4ccc(O)cc4)cc23)c1F [Example 19, N-(2,4-difluoro-3-(5-(4-hydroxyphenyl)-1H-pyrazo-lo[3,4-b]pyridine-3-carbonyl)-phenyl)propane-1-sulfon-amide]
+ (10 ≤ PoC < 30) | + (10 > PoC(JNK1)/PoC(MKK4) ≥ 3) | + (10 > PoC(MKK7)/PoC(MKK4) ≥ 3) | O (PoC(BRaf)/PoC(MKK4) < 3) | 1 to 10 | 0.5 to 1 | > 10 | CCCS(=O)(=O)Nc1ccc(F)c(C(=O)c2n[nH]c3ncc(-c4cccc([N+](=O)[O-])c4)cc23)c1F [Example 32, N-(2,4-difluoro-3-(5-(3-nitrophenyl)-1H-pyrazolo[3,4-b]pyridine-3-carbonyl)phenyl)propane-1-sulfon-amide]
+++ (PoC < 1) | +++ (PoC(JNK1)/PoC(MKK4) ≥ 30) | +++ (PoC(MKK7)/PoC(MKK4) ≥ 30) | + (10 > PoC(BRaf)/PoC(MKK4) ≥ 3) | 1 to 10 | < 0.5 | 1 to 10 | CCCS(=O)(=O)Nc1ccc(F)c(C(=O)c2n[nH]c3ncc(-c4ccc(S(N)(=O)=O)cc4)cc23)c1F [Example 15, 4-(3-(2,6-difluoro-3-(propyl-sulfonamido)benzoyl)-1H-pyrazolo[3,4-b]pyridin-5-yl)benzene-sulfonamide]
++ (1 ≤ PoC < 10) | +++ (PoC(JNK1)/PoC(MKK4) ≥ 30) | +++ (PoC(MKK7)/PoC(MKK4) ≥ 30) | O (PoC(BRaf)/PoC(MKK4) < 3) | 0.5 to 1 | < 0.5 | 1 to 10 | CCCS(=O)(=O)Nc1ccc(F)c(C(=O)c2n[nH]c3ncc(-c4cccc(N)c4)cc23)c1F [Example 27, N-(3-(5-(3-aminophenyl)-1H-pyrazolo[3,4-b]pyridine-3-carbonyl)-2,4-difluorophenyl)-propane-1-sulfonamide]

The remaining lines, values behind:

Structure (SMILES) | MKK4, residual percent of control binding (PoC) (MKK4) | Selectivity vs. JNK1, ratio PoC(JNK1)/PoC(MKK4) (JNK1) | Selectivity vs. MKK7, ratio PoC(MKK7)/PoC(MKK4) (MKK7) | Selectivity vs. BRaf, ratio PoC(BRaf)/PoC(MKK4) (BRaf) | IC50 (MKK4-MEKK2 mix) [µM] | IC50 (MKK4 active) [µM] | IC50 (MEKK2) [µM]
CCCS(=O)(=O)Nc1ccc(F)c(C(=O)c2n[nH]c3ncc(-c4ccccc4C)cc23)c1F [Example 13, N-(2,4-difluoro-3-(5-o-tolyl-1H-pyrazolo[3,4-b]pyridine-3-carbonyl)-phenyl)propane-1-sulfon-amide] | ++ (1 ≤ PoC < 10) | ++ (30 > PoC(JNK1)/PoC(MKK4) ≥ 10) | ++ (30 > PoC(MKK7)/PoC(MKK4) ≥ 10) | + (10 > PoC(BRaf)/PoC(MKK4) ≥ 3) | 1 to 10 | < 0.5 | 1 to 10
CCCS(=O)(=O)Nc1ccc(F)c(C(=O)c2n[nH]c3ncc(-c4ccc(C(=O)O)cc4)cc23)c1F [Example 51d, 4-(3-(2,6-difluoro-3-(propylsulfonamido)benzoyl)-1H-pyrazolo[3,4-b]pyridin-5-yl)benzoic acid] | +++ (PoC < 1) | +++ (PoC(JNK1)/PoC(MKK4) ≥ 30) | +++ (PoC(MKK7)/PoC(MKK4) ≥ 30) | ++ (30 > PoC(BRaf)/PoC(MKK4) ≥ 10) | < 0.5 | < 0.5 | 1 to 10
CCCS(=O)(=O)Nc1ccc(F)c(C(=O)c2n[nH]c3ncc(-c4ccc(S(C)(=O)=O)cc4)cc23)c1F [Example 24, N-(2,4-difluoro-3-(5-(4-(methylsulfonyl)phenyl)-1H-pyrazolo[3,4-b]pyridine-3-carbonyl)phenyl)propane-1-sulfonamide] | ++ (1 ≤ PoC < 10) | +++ (PoC(JNK1)/PoC(MKK4) ≥ 30) | +++ (PoC(MKK7)/PoC(MKK4) ≥ 30) | O (PoC(BRaf)/PoC(MKK4) < 3) | > 10 | 0.5 to 1 | > 10
CCCS(=O)(=O)Nc1ccc(F)c(C(=O)c2n[nH]c3ncc(-c4ccccc4)cc23)c1F [Example 2, N-(2,4-difluoro-3-(5-phenyl-1H-pyrazolo[3,4-b]pyridine-3-carbonyl)phenyl)propane-1-sulfonamide] | ++ (1 ≤ PoC < 10) | ++ (30 > PoC(JNK1)/PoC(MKK4) ≥ 10) | +++ (PoC(MKK7)/PoC(MKK4) ≥ 30) | ++ (30 > PoC(BRaf)/PoC(MKK4) ≥ 10) | 1 to 10 | < 0.5 | > 10
